Measured values from patent US10233201B2, “Class of HDAC inhibitors expands the renal progenitor cells population and improves the rate of recovery from acute kidney injury” (University of Pittsburgh—Of the Commonwealth System of …, priority 2012, dated 2019).
Where “and” joins values, the source holds several entries; their conditions need not be identical. Equal entries are not always repeated. Entries after “also recorded” stand apart in the source; their conditions may differ.

Key:
[1] = cited from earlier work
[2] = test system: zebrafish larvae; assay: Phenotypic scoring of edema and survival in zebrafish larvae at 72 hpf; assay type: in vivo
From the text: (§1) PTBA was synthesized as described below. Hydroxyurea and aphidicolin were obtained from Sigma-Aldrich.
Wild type: no visible edema or developmental delay.

[3] = test system: renal progenitor cells (lhx1a expression); assay: In situ hybridization for lhx1a expression in 10-somite embryos (renal progenitor cell expansion); assay type: in vivo
Method: as §1
(§2) In situ hybridization and immunocytochemistry: In situ hybridization was performed as previously described with some modifications. 142 Hybridization temperature was 65° C. Embryos were blocked in 2% blocking reagent (Roche) with 5% sheep serum in MAB (100 mM maleic acid and 150 mM NaCl [pH 7.5]). Whole-mount immunocytochemistry with 1:25 mouse anti-α6F antibody (Developmental Studies Hybridoma Bank) and 1:100 Cy3 secondary antibody (Jackson ImmunoResearch) was performed as described previously. 108 Embryos were embedded in JB-4 for sectioning per the manufacturer's instructions (Polysciences), sectioned at 5 μm, and mounted with Cytoseal 60 (Richard-Allan Scientific).
The remaining PTBA analogs were synthesized.
In situ hybridization for lhx1a was performed as described above. […] Compounds were classified as effective, partially-effective or ineffective based on comparison to the effects of PTBA at a given concentration.
Testing of the compounds is on-going, but for those tested, Table 3 provides first pass EC50s based upon colormetric in situ hybridizations for the Lhx1a mRNA expression levels. After the procedure is run, in situ hybridization is done for the lhx1 mRNA expression and the number of embryos that show an expanded kidney field is manually counted to establish the percent of embryos showing expansion. Then the EC50 is determined by plotting the percent expansion in Excel, graphing the results and using the trendline function to determine the 50 percent point. […] For UPHD-00186, the 4 values for EC50 are shown in Table 3 for the corresponding expression in zebrafish embryos employed an artificial intelligence-based image analysis method termed cognition network technology (CNT) for n=4.

[4] = test system: myod1 (somites), fli1a (vasculature), ntla (notochord); assay: In situ hybridization for mesodermal markers myod1, fli1a, ntla in 10-somite embryos; assay type: in vivo, zebrafish
Method: as §1, §2

[5] = test system: human HDACs (HeLa cell nuclear extract); assay: Fluorescence histone deacetylation assay with HeLa cell nuclear extract; assay type: biochemical; settings: 1 μM TSA, all input levels of nuclear extract
Method: To evaluate this in vitro, the deacetylation of a fluorescent peptide substrate was measured in the presence of human HDACs.
In vitro HDAC activity assays were performed using a fluorescence HDAC assay kit (Active Motif) according to the manufacturer's instructions. For maintaining compound solubility at 5 mM, the final DMSO concentration in all assay wells was increased to 5%. Fluorescence was detected using an M5 Plate Reader ([…])

[6] = test system: histone H4 acetylation; assay: Histone H4 hyperacetylation Western blot in embryos; assay type: in vivo, zebrafish; settings: 24 hpf embryos treated 6 hours; 3 μM PTBA, 25 μM PBA, 200 nM TSA
Method: It was next determined whether the HDACi function of PTBA was quantifiable in vivo. 24 hpf embryos were treated with 3 μM PTBA, 25 μM PBA, or 200 nM TSA for 6 hours. Protein extracts were prepared and immunoblotted with an anti-hyperacetylated histone H4 antibody. […] Furthermore, increasing the compound concentration caused a corresponding increase in hyperacetylation (FIG. 21).
SDS-PAGE and Western blotting were performed as described previously with some modifications (Noel, E. S. et al. Organ-specific requirements for Hdac1 in liver and pancreas formation. Dev Biol 322, 237-250, (2008)). Proteins were separated on 18% SDS-PAGE gels. Membranes were incubated at 4° C. overnight with 1:1000 anti-hyperacetylated histone H4 antibody (06-946, Millipore) or 1:1000 anti-α-tubulin antibody (Sigma-Aldrich) in PBT containing 5% nonfat milk.

[7] = test system: kidney field (cad17:EGFP); assay: Image-based high-content screen, Tg(cad17:EGFP) embryos, CNT analysis; assay type: in vivo, zebrafish; settings: 4 individual values (n=4)
From the text: Initial studies, above, used a phenotypic marker of the ability to expand the renal progenitor cell field in larval zebrafish, and identified the first member of a novel class of HDAC inhibitors, PTBA as well as a few structural and functional analogs. These findings form the basis for further study. However, this technology is limited as it is dependent on subjective interpretation of a subtle phenotypic change in the fish. Therefore, in order to develop a more objective and higher content screen, we developed an image-based high-content screen using transgenic zebrafish (Vogt A, et al. Automated image-based phenotypic analysis in zebrafish embryos. Dev Dyn. 2009; 238(3):656-63). […] Tg(Cad17:EGFP) zebrafish is a transgenic line that was prepared by isolation of an approximately 5 kb (5066 bp) promoter element and approximately 3 kb (3221 bp) first intron element from the cadherin 17 locus, cloning it into a plasmid along with the enhanced GFP open reading frame and injecting if into zebrafish embryos to established transgenic lines using the meganuclease transgenesis method (Soroldoni et al., Simple and efficient transgenesis with meganuclease constructs in zebrafish, Methods Mol Bio 2009; 546: 117-30.). […]
For all second-generation compounds, the cad17:EGFP transgene is used as the primary readout to assay for expansion of kidney field (FIG. 35). […]

[8] = test system: BALB/c mice, severe IR-AKI; assay: Severe ischemia-reperfusion AKI (IR-AKI); assay type: in vivo, mouse
Method: Surgeries were performed on a water-bath heated platform at 38° C. on 10-12 week old male BALB/c mice. For moderate IR-AKI, mice underwent a right nephrectomy followed by left renal pedicle clamping (800 μm pressure clamp, FST 18052-03). The clamp was released after 26 minutes, and tissue reperfusion was confirmed before completing the surgery. Mice were treated daily with indicated doses of compounds or equivalent volume of 20% 2-hydroxypropyl-β-cyclodextrin in water as vehicle control starting 24 h after injury. Since initial injury with this model is variable, mice were randomly allocated vehicle or m4PTB treatment if their serum creatinine levels were 0.8 to 1.2 mg/dl 24 h post IR injury. Other mice were excluded from further analysis and euthanized. To induce severe IR-AKI, mice underwent left renal pedicle clamping for 30 minutes and delayed contralateral nephrectomy was performed after 8 days.
For mouse studies, kidney sections were stained using Periodic Acid-Schiff (PAS) to assess renal tubular injury. Tubular injury (casts, dilated tubules, epithelial cell blebbing, and vacuolization, loss of brush borders or nuclei) was scored as described. Sirius red staining was performed using an established protocol used to evaluate renal fibrosis/collagen accumulation in kidney sections. To quantify Sirius red staining we used an Olympus BX-41 microscope equipped with an Olympus DP-72 digital camera system and polarizing light filter. Results are expressed as the mean percent fibrosis for all of the images per slide region (Sirius red positive/total surface area).
We used of 2-hydroxypropyl-β-cyclodextrin (CD, Sigma), a low toxicity drug formulation vehicle that has been well characterized and used extensively as a hydrophobic drug delivery vehicle. We could achieve concentrations of up to ˜12 mg/ml of PTBA analogues in 20% CD in water (100 mg/kg in volumes of ˜150-250 μl), and daily IP injections with 200 μl 20% CD in water had no effect on renal functional recovery following IR-AKI. Therefore all studies were performed using compounds dissolved in 20% CD. To assess dosing and biological activity of PTBA analogues in mice, CD1 mice were injected with varying doses of compounds IP and kidneys isolated at different time point for histone extraction and analysis of histone H4 acetylation, a marker of HDAC inhibitor activity, as outlined below. Based on results of these studies, mice were treated daily with 1, 10, 50 or 100 mg/kg of compound or equivalent volume of 20% CD vehicle control starting 24 h after injury.
˜30 μl blood was obtained by tail vein bleed at different time points, and serum samples frozen after confirming that they had not undergone hemolysis (which interferes with enzymatic analysis for serum creatinine). Serum creatinine was evaluated in duplicate samples using a commercially available enzymatic cascade assay (Pointe Scientific, requires only ˜7 μl of serum). […] Blood Urea Nitrogen (BUN) was determined in duplicate samples using a colorimetric enzymatic assay kit (Infinity Urea, Thermo Scientific), and spot urinary albumin/creatinine ratios determined using a mouse albumin ELISA and urinary creatinine assay kit (Albuwell and Creatinine Companion, Exocell).
Compounds 22, 25, 29, 36, and 186 were injected for 7 days at […] starting 24 hrs after severe IR treatment. […] Fibrotic (scar) tissue was measured using Sirus Red after 28 days for various markers of fibrosis.

[9] = test system: mouse models of unilateral ureteral obstruction (UUO); assay: Unilateral ureteral obstruction (UUO); assay type: in vivo
From the text: The model of unilateral ureteral obstruction generates progressive renal fibrosis. Surgically created UUO can be experimentally manipulated with respect to timing, severity, and duration, while reversal of the obstruction permits the study of recovery.
FIG. 47 represents the results of the testing of compounds UPHD-00022, UPHD-00025 (PTBA), UPHD-00029, UPHD-00036, and UPHD-00186, for their efficacy in mouse models of unilateral ureteral obstruction (UUO) as follows: in the UUO models, one ureter was ligated for 7 days and compounds were delivered via IP for days 0 to 6. At day 7 kidneys were harvested for Sirius red staining. […] Therefore, in the models tested, the only compound proven to be effective in all models and with significant delayed onset of treatment is UPHD-186.

[10] = 7 days at 50 mg/ml starting 24 hrs after severe IR

## O=C(O)CCCc1ccccc1 [Buphenyl]
[1]; following administration
  half-life (t1/2): ~1 h
[1]; taken orally
  bioavailability: about 80%

## CC(/C=C/C(=O)NO)=C\[C@@H](C)C(=O)c1ccc(N(C)C)cc1 [TSA, trichostatin A]
[2]; 300 nM
  treated 72 hpf larvae killed: greater than 90%
[2]; 3 μM, 2 to 72 hpf
  larval phenotype in phenotypic screen of analogs: generated edemic and/or lethal phenotypes
[2]; 25 μM PBA, 200 nM TSA, n=90
  death (lethality) by 72 hpf: 61%
[2]; treated from 2 hpf, 3 μM PTBA, 25 μM PBA, 200 nM TSA
  larvae with edemic phenotype / pericardial edema at 72 hpf: 100%
[3]; 100 nM
  embryos with expanded lhx1a expression (% expansion): 97%
[3]; 100 nM from 2 hpf
  lhx1a expansion class, 100 nM: +
[3]; 200 nM
  embryos with expanded lhx1a expression (% expansion): 100%
[3]; 200 nM from 2 hpf
  lhx1a expansion class, 200 nM: +
[3]; 400 nM
  lethality before the 10-somite stage: died before reaching 10 somites
[3]; 800 nM
  lethality before the 10-somite stage: lethal
[3]; 1.5 μM
  lethality before the 10-somite stage: lethal
[3]; 3 μM
  lethality before the 10-somite stage: killed all treated embryos
[3]; 10-somite embryos
  concentration producing lhx1a expansion consistent with 3 μM PTBA: 200 nM
[4]; 200 nM
  embryos with disrupted normal ntla expression: 86%
[4]; 3 μM PTBA (slightly decreased), 25 μM PBA, 200 nM TSA
  embryos with decreased myod1 expression: 100%
[4]; 25 μM PBA, 200 nM TSA
  embryos with decreased fli1a expression: 95%
[5]
  effect on HDAC activity: completely blocked activity; also recorded: inhibit all HDAC activity
[6]
  histone H4 hyperacetylation: hyperacetylation was observed

## O=C(CCCSc1ccccc1)Nc1ccccc1O [UPHD-00186, N-(2-hydroxyphenyl)-4-(phenylsulfanyl) butanamide]
[7]
  EC50: 649 nM and 810 nM and 818 nM
[7]; Danio rerio
  EC50: 587 nM
[8]; [10]
  fibrosis after 28 days (Sirus Red, markers of fibrosis): most reduction in fibrosis
  serum creatinine at day 9: better activity
[8]; FIG. 46
  effect of timing of treatment in severe IR-AKI: has still a significant effect on IR-AKI after more than 7 days
[8]; treatment 3 days after IR-AKI, FIG. 48
  post injury fibrosis with delayed treatment: still markedly reduces post injury fibrosis
[8]; various dosages, FIG. 45
  reduction in post injury fibrosis at various dosages: efficient at elevated doses
[9]; IP days 0 to 6, kidneys harvested at day 7
  fibrosis (Sirius red) and expression of fibrosis markers in UUO kidney: reduce both fibrosis and expression of fibrosis markers
[9]; mouse, in vivo
  prevention of post injury fibrosis in UUO compared with Vorinostat (SAHA): more effective than the FDA approved HDACi drug Vorinostat (SAHA)
